Test results taken from paper PMC5354820, “Novel PARP1/2 inhibitor mefuparib hydrochloride elicits potent in vitro and in vivo anticancer activity, characteristic of high tissue distribution” (Oncotarget, 2016).
Values after ≈ are worked out from the molar mass of the structure shown. Like-named read-outs stand apart in the source and are kept apart here. One block for each compound: values may come before it.

Assays:
[1] = test system: V-C8 cells; experiment: Proliferative inhibition assay, V-C8; assay type: cell-based, Chinese hamster; conditions: Cricetulus griseus, V-C8, 72 h, read-out: IC50 (mean ± SD)
Protocol: (§2) Cells cultured in 96-well plates were treated with PARP inhibitors alone or in combination with the indicated anticancer drugs for 3 days (Chinese hamster cells and Ewing sarcoma cells) or 7 days (all the other cells). Then the cells were subjected to the Cell Counting Kit 8 (CCK8) assays (Chinese hamster cells, Ewing sarcoma cells, HCC1937 and MDA-MB-436 cells) or by Sulforhodamine B (SRB) assays (all the other cells) as described previously [18, 19]. […] The averaged IC50 values (mean ± SD) were determined with the Logit method from three independent tests.

[2] = test system: V79 cells; experiment: Proliferative inhibition assay, V79; assay type: cell-based, Chinese hamster; conditions: Cricetulus griseus, V79, 72 h, read-out: IC50 (mean ± SD)
Protocol: as §2

[3] = cited from earlier work
[4] = test system: HCC1937 cells; experiment: Proliferative inhibition assay, HCC1937; assay type: cell-based; conditions: Homo sapiens, HCC1937, 168 h, read-out: IC50 (mean ± SD)
Protocol: as §2

[5] = test system: UWB1.289 cells; experiment: Proliferative inhibition assay, UWB1.289; assay type: cell-based; conditions: Homo sapiens, UWB1289, 168 h, read-out: IC50 (mean ± SD)
Protocol: as §2

[6] = test system: HCT-15 cells; experiment: Proliferative inhibition assay, HCT-15; assay type: cell-based; conditions: Homo sapiens, HCT-15, 168 h, read-out: IC50 (mean ± SD)
Protocol: as §2

[7] = parameters: method as in PMID 18800822; conditions: dogs; cited from earlier work
[8] = test system: γH2AX in V-C8 cells; experiment: γH2AX accumulation in cultured V-C8 cells; assay type: cell-based, Chinese hamster; conditions: V-C8 (BRCA2−/−), concentration-dependent
[9] = parameters: method as in PMID 19553641; conditions: cited from earlier work
[10] = test system: V-C8 xenografts; assay type: in vivo; conditions: mouse, in vivo
Description: (§1) V-C8, V79, MDA-MB-436 and SW620 xenografts were established by inoculating 5 × 10^6 cells s.c. in nude mice, respectively. After 1~2 passages in nude mice, the well-grown xenografts were cut into 1.5-mm^3 fragments that subsequently were transplanted s.c. into the right flank of nude mice. When xenografts reached a volume of 100–200 mm^3 (230-240 mm^3 for V79), the mice were randomized to control and treated groups and received the corresponding treatments as indicated. […]. The size of xenografts and the body weight of mice were measured individually twice per week. The xenografts were measured for the maximal width (X) and length (Y) and the volume (V) was calculated as (X^2Y)/2. Relative tumor volume (RTV) was calculated as Vt / V0, where V0 and Vt were the volume before and after treatments, respectively. The in vivo anticancer activity was judged by their T/C (%) values. T/C (%) was calculated as (TRTV / CRTV)×100%, where TRTV and CRTV represented the RTV of the treatment and the vehicle group, respectively.

[11] = test system: DoTc2-4510 cells; experiment: Proliferative inhibition assay, DoTc2-4510; assay type: cell-based; conditions: Homo sapiens, DoTc2-4510, 168 h, read-out: IC50 (mean ± SD)
Protocol: as §2

[12] = test system: P-glycoprotein (P-gp); parameters: method as in PMID 26374559; conditions: cited from earlier work
[13] = test system: RD-ES cells; experiment: Proliferative inhibition assay, RD-ES; assay type: cell-based; conditions: Homo sapiens, 72 h, read-out: IC50 (mean ± SD)
Protocol: as §2

[14] = test system: Capan-1 cells; experiment: Proliferative inhibition assay, Capan-1; assay type: cell-based; conditions: Homo sapiens, CAPAN-1, 168 h, read-out: IC50 (mean ± SD)
Protocol: as §2

[15] = parameters: method as in PMID 18800822; conditions: rats; cited from earlier work
[16] = parameters: method as in PMID 19553641; conditions: humans; cited from earlier work
[17] = test system: V-C8+H13 cells; experiment: Proliferative inhibition assay, V-C8+H13; assay type: cell-based, Chinese hamster; conditions: Cricetulus griseus, 72 h, read-out: IC50 (mean ± SD)
Protocol: as §2

[18] = test system: V79 xenografts; experiment: V79 subcutaneous xenografts in nude mice; assay type: in vivo; conditions: similar treatments as in V-C8 xenografts
Description: as §1

[19] = test system: MDA-MB-436 xenografts; experiment: MDA-MB-436 subcutaneous xenografts in nude mice; assay type: in vivo; conditions: oral; MPH once every other day, AZD2281 30 mg/kg each day
Description: as §1

[20] = test system: U251 cells; experiment: Proliferative inhibition assay, U251; assay type: cell-based; conditions: Homo sapiens, U-251, 168 h, read-out: IC50 (mean ± SD)
Protocol: as §2

[21] = test system: MDA-MB-436 cells; experiment: Proliferative inhibition assay, MDA-MB-436; assay type: cell-based; conditions: Homo sapiens, MDA-MB-436, 168 h, read-out: IC50 (mean ± SD)
Protocol: as §2

[22] = test system: γH2AX in MDA-MB-436 cells; experiment: γH2AX accumulation in cultured MDA-MB-436 cells; assay type: cell-based, human; conditions: MDA-MB-436 (BRCA1−/−), concentration-dependent
[23] = test system: PC-3 cells; experiment: Proliferative inhibition assay, PC-3; assay type: cell-based; conditions: Homo sapiens, PC-3, 168 h, read-out: IC50 (mean ± SD)
Protocol: as §2

[24] = test system: SK-ES-1 cells; experiment: Proliferative inhibition assay, SK-ES-1; assay type: cell-based; conditions: Homo sapiens, SK-ES1, 72 h, read-out: IC50 (mean ± SD)
Protocol: as §2

[25] = Metabolites in monkey plasma; assay type: in vivo; conditions: monkeys, MPH 10 mg/kg oral; for share of the total amount of all the metabolites and MPH in the plasma: 3-h time point; for average remaining amount, of the corresponding plasma amount at 3 h: 12-h time point
Protocol: SD rats and cynomolgus monkeys were used to do the in vivo pharmacokinetic studies. […] The metabolites in the monkey plasma were analyzed by UPLC-UV/Q-TOF MS. The metabolite data were collected with Analyst® TF V1.6 (AB Sciex Inc., Framingham, MA) and Masslynx V4.1 (Waters Corporation, Milford, MA) and analyzed with PeakView® V1.2 and MetabolitePilot V1.5 (AB Sciex).

[26] = test system: SW620 xenografts; experiment: SW620 subcutaneous xenografts in nude mice, alone or with TMZ; assay type: in vivo; conditions: SW620, d21, TMZ 2 mg/kg alone
Protocol: After 1~2 passages in nude mice, the well-grown xenografts were cut into 1.5-mm^3 fragments that subsequently were transplanted s.c. into the right flank of nude mice. When xenografts reached a volume of 100–200 mm^3 (230-240 mm^3 for V79), the mice were randomized to control and treated groups and received the corresponding treatments as indicated. […] The size of xenografts and the body weight of mice were measured individually twice per week. The xenografts were measured for the maximal width (X) and length (Y) and the volume (V) was calculated as (X^2Y)/2. Relative tumor volume (RTV) was calculated as Vt / V0, where V0 and Vt were the volume before and after treatments, respectively.

Structure (SMILES): O=C(c1cc(Cc2n[nH]c(=O)c3ccccc23)ccc1F)N1CCN(C(=O)C2CC2)CC1 [AZD2281, olaparib, reference compound]
IC50 [1]: 610 ± 40 nM | IC50 [2]: 15600 ± 1150 nM | water solubility [3]: < 1000 µg/mL | solubility in aqueous media ([3]; independent of pH): 100 µg/mL (≈ 230 µM) | IC50 [4]: 7280 ± 1910 nM | IC50 [5]: 2980 ± 1650 nM | IC50 [6]: 25700 ± 4700 nM | Vd [7]: 1.3 L/kg | γH2AX levels (DSB accumulation) [8]: increased levels of γH2AX | passage of the blood-brain barrier [9]: hard to go through the blood-brain barrier | death or body-weight loss of the animals [10]: did not cause death or significant body-weight loss | IC50 [11]: 890 ± 280 nM | P-gp substrate [12]: substrate of the drug transporter P-glycoprotein (P-gp) | IC50 [13]: 670 ± 140 nM | IC50 [14]: 1730 ± 320 nM | Vd [15]: 1.18 L/kg | average Vd [16]: 40.3 L | IC50 [17]: 13600 ± 1850 nM | effect on growth of V79 xenografts [18]: did not inhibit the growth of V79 xenografts | effect on growth of MDA-MB-436 (BRCA1−/−) xenografts [19]: between those of MPH at 40 mg/kg and 80 mg/kg every other day | IC50 [20]: 2500 ± 640 nM | IC50 [21]: 20 ± 10 nM | γH2AX levels (DSB accumulation) [22]: increased levels of γH2AX | IC50 [23]: 4700 ± 690 nM | IC50 [24]: 1700 ± 130 nM

share of the total amount of all the metabolites and MPH in the plasma [25]: 52.18% | average remaining amount, of the corresponding plasma amount at 3 h [25]: 3.13%
Structure (SMILES): CNCc1ccc(-c2cc3cc(F)cc(C(=O)O)c3o2)cc1 [M1]

share of the total amount of all the metabolites and MPH in the plasma [25]: 1.86% | average remaining amount, of the corresponding plasma amount at 3 h [25]: 23.54%
Structure (SMILES): NC(=O)c1cc(F)cc2cc(-c3ccc(C(=O)O)cc3)oc12 [M2]

share of the total amount of all the metabolites and MPH in the plasma [25]: 4.18%
Structure (SMILES): CNCc1ccc(-c2cc3cc(F)cc(C(=O)OC4OC(C(=O)O)C(O)C(O)C4O)c3o2)cc1 (centres unmarked) [M3]

share of the total amount of all the metabolites and MPH in the plasma [25]: 0.24%
Structure (SMILES): CNC(=O)c1ccc(-c2cc3cc(F)cc(C(N)=O)c3o2)cc1 [M4]

share of the total amount of all the metabolites and MPH in the plasma [25]: 0.72%
Structure (SMILES): CC(=O)NCc1ccc(-c2cc3cc(F)cc(C(=O)O)c3o2)cc1 [M5]

share of the total amount of all the metabolites and MPH in the plasma [25]: 1.63%
Structure (SMILES): CN(Cc1ccc(-c2cc3cc(F)cc(C(N)=O)c3o2)cc1)OC1OC(C(=O)O)C(O)C(O)C1O (centres unmarked) [M6]

Structure (SMILES): Cn1nnc2c(C(N)=O)ncn2c1=O [TMZ, temozolomide, reference compound]
FTV (fractional tumor volume), TMZ alone [26]: 0.16

Structure (SMILES): NC(=O)c1cccc2cn(-c3ccc([C@@H]4CCCNC4)cc3)nc12 [niraparib]
water solubility [3]: < 1000 µg/mL

Structure (SMILES): CNCc1ccc(-c2[nH]c3cc(F)cc4c3c2CCNC4=O)cc1 [rucaparib]
water solubility [3]: < 1000 µg/mL

Structure (SMILES): Cn1ncnc1[C@H]1c2n[nH]c(=O)c3cc(F)cc(c23)N[C@@H]1c1ccc(F)cc1 [talazoparib]
water solubility [3]: < 1000 µg/mL

Structure (SMILES): C[C@]1(c2nc3c(C(N)=O)cccc3[nH]2)CCCN1 [veliparib]
water solubility [3]: < 1000 µg/mL
